{"source": "patent US20210144999A1", "about": "“COMPOSITIONS COMPRISING HYDROXYCINNAMIC ACID AND RELATED CONJUGATES, ANALOGUES AND DERIVATIVES, AND METHODS OF USE THEREOF” (YEDA RESEARCH AND DEVELOPMENT CO. LTD., priority 2017, published 2021)", "key": {"[1]": {"test_system": "pks operon (PpksC promoter)", "assay": "pks expression, PpksC-lux luminescence reporter", "format": "cell-based, B. subtilis", "details": "library of 400 plant metabolites, growth-normalized RLU", "method": "FIGS. 23A-23B: An ester of caffeic acid induces antibiotic production. (FIG. 23A) Scheme of a screen of plant metabolites for pks induction. (FIG. 23B) Growth-normalized RLU of PpksC-lux strain treated with a small molecule library representative as in A, compared with the treatment in root exudate.\n(§1) pks expression analysis. pks expression in the presence of plant metabolites was analyzed as following: the luminescence intensity of cells harboring a PpksC-lux transcriptional promoter fusion was analyzed. Cells were grown to a mid-logarithmic phase, diluted 1:100 in 150 μl liquid MSgg medium, either with or without root exudate. Cells were grown in a 96-well microplate (Thermo Scientific, Roskilde, Denmark) with agitation at 30° C. for 16 h in a microplate reader (Synergy 2, BioTek, Winooski, Vt., USA) measuring luminescence intensity and the optical density at 600 nm (OD600) every 15 min.\nA library of 400 plant metabolites was screened for pks induction using B. subtilis cells carrying the PpksC-lux construct (FIG. 23A)."}, "[2]": {"test_system": "pks operon (PKS promoter)", "assay": "pks expression, amyE::Ppks-gfp fluorescence reporter", "format": "cell-based, B. subtilis", "method": "FIGS. 3A:-3H Specialized host-derived metabolites increase PKS activity while B. subtilis biofilms increase plant Induced Systemic Resistance (ISR). (FIG. 3A) Quantification of pks expression (amyE::Ppks-gfp) in B. subtilis over time in response to different hydrophobicity fractions of plant root exudate. Expression was measured using fluorescent intensity of GFP fused to the PKS promoter. Color-coded curves indicate ascending methanol concentrations used for consecutive washings of root exudate from Silica-based bonded phase with strong hydrophobicity; darker curve indicates the first flow-through of the loaded root exudate from the silica cartridge. Orange curve indicate the pks expression kinetics without treatment. (FIG. 3B) Quantification of pks expression (amyE::Ppks-gfp) in B. subtilis over time in response to plant root metabolites. Expression was measured by fluorescent intensity of GFP fused to the PKS promotor. Color-coded curves indicate 5, 50,100 and 150 μM of the four metabolites: Methyl β-D-Glucopyranosid (upper left), Chromone (upper right), Chlorogenic acid (lower left) and Caffeic acid (lower right). Orange curve indicate the pks expression kinetics without treatment. (FIG. 3C) Fluorescence imaging of pks expression (amyE::Ppks-gfp) in a single cell resolution 5 h after B. subtilis was grown in MSgg (control) liquid culture supplemented with 150 μM of Chlorogenic acid and Caffeic acid. Images presented as over-layered channels of TL-phase and EGFP. Scale bar—[…]. […] Pathogenicity was measured in E. sativa seedlings whose roots were inoculated with B. subtilis, S. plymuthica and their combination in ratios of 1:1, 100:1 and 1:100. […]\nFluorescence microscopy. […] Cells were s visualized by fluorescence microscopy; Phase contrast and signal from Ppks-gfp (green) are shown. Fluorescent cell count and intensity levels were recorded for 10 fields in each treatment, at least 1000 cells were quantified for each treatment."}, "B. subtilis": {"test_system": "B. subtilis", "assay": "Planktonic growth (OD600) in liquid MSgg", "format": "cell-based", "details": "caffeic acid at indicated concentrations, 30° C.", "method": "Planktonic growth of wild type grown at 30° C. with shaking in liquid MSgg medium without (untreated) or caffeic acid at indicated concentrations was monitored by measuring OD600in a microplate reader. Results are averages of four wells within one experiment and their standard deviations. A representative of three independent experiments is shown.\nas §1"}, "B. subtilis biofilms": {"test_system": "B. subtilis biofilms", "assay": "B. subtilis biofilm stability / maintenance in vitro", "format": "cell-based", "details": "for effect on beneficial biofilms (stability / maintenance), single agent: in vitro, biofilms at day 1 and day 5", "method": "Shown are biofilms of treated and untreated B. subtilis biofilms.\nStrains and Media All experiments were performed with B. subtilis NCBI3610 and its derivatives. Assays were carried out with the biofilm-inducing medium, MSgg: 5 mM potassium phosphate, 100 mM MOPS (pH 7), 2 mM MgCl2, 50 μM MnCl2, 1 μM ZnCl2, 2 μM thiamine, 0.5% glycerol, 0.5% glutamate, 50 μg/ml tryptophan, 50 μg/mlphenylalanine 50 μg/ml threonine, 700 μM CaCl2, and 50 μM (for growth assays) or 125 μM (for biofilm assays) FeCl3^1. A solid MSgg medium was obtained by adding Bacto agar (Difco) to a final concentration of 1.5%. When necessary, selective medium was prepared with LB-agar or LB broth, supplemented with: 100 μg/ml ampicillin (amp) (AG Scientific), or 10 μg/ml kanamycin (kan) (AG Scientific), or 10 μg/ml chloramphenicol (cam) (Amresco), or 10 μg/ml tetracycline (tet) (Amresco), or 100 μg/ml spectinomycin (spec) (Tivan Biotech), or 1 μg/mlerythromycin (erm) (Amresco)+25 μg/ml lincomycin (linc) (Sigma Aldrich)."}, "[3]": {"test_system": "B. subtilis 3610 biofilms", "assay": "Biofilm maintenance (% coverage) on tomato roots in planta", "format": "in vivo", "details": "1000 B. subtilis cells with or without materials, tomato plants on agrophonic beads", "method": "(FIGS. 17A-17C) B. subtilis 3610 constantly expressing the fluorescent protein mKate2 was maintained on LB plates. 1000 cells either applied or non-applied with the materials indicated were added to tomato plants grown on agrophonic beads. % coverage was calculated based on quantifying 20 fields from the fluorescent microscope using Image J. Three replications were maintained for each assay. SD represents the average of three independent experiments."}, "[4]": {"test_system": "pseudomonas syringae pv. Tomato", "assay": "Tomato plant survival after pseudomonas syringae pv. Tomato infection (Example 9)", "format": "in vivo, tomato plants", "details": "5 μM caffeic acid or 5 μM putrescine or 2.5 μM each; putrescine read 28 days after infection", "method": "Bacillus strain B. subtilis 3610 (B.S) are maintained on LB plates. 1000 cells of B.S. with or without the addition of 5 μM of caffeic acid or 5 μM of putrescine, or 2.5 μM each of caffeic acid and putrescine are added to tomato plants grown on agrophonic beads. Plants are incubated at 28±2° C. for 15 days."}}, "note": "Entries after “also recorded” stand apart in the source; their conditions may differ.", "data": [{"compound": "O=c1ccc2cc(O)c(O)cc2o1", "note": "[aesculetin]", "values": [{"measurement": "pks activation in screen of plant metabolites", "setting": "[1]", "result": "activatespks operon; also recorded: induced pks activation"}]}, {"compound": "O=C(O)/C=C/c1ccc(O)c(O)c1", "note": "[caffeic acid]", "values": [{"measurement": "number of cells expressing the pks operon", "setting": "[2]; 150 μM, 5 h, single cell fluorescence", "result": "induced the number of cells expressing the pks operon"}, {"measurement": "average pks expression level", "setting": "[2]; 150 μM, single cell fluorescence, versus control", "result": "comparable to the control"}, {"measurement": "pks (PKS) expression", "setting": "[2]; B. subtilis amyE::Ppks-gfp, liquid MSgg, 5, 50, 100 and 150 μM", "result": "activatespks operon; also recorded: significantly enhanced PKS expression"}, {"measurement": "planktonic growth of B. subtilis", "setting": "B. subtilis", "result": "no impact on planktonic growth; also recorded: little or no effect on the growth of B. subtilis"}, {"measurement": "duration of increased stability of bacterial beneficial biofilms", "setting": "B. subtilis biofilms; caffeic acid alone, 100 μM, laboratory conditions", "result": "up to 4 days"}, {"measurement": "effect on beneficial biofilms (stability / maintenance), single agent", "setting": "B. subtilis biofilms", "result": "can promote biofilm maintenance"}, {"measurement": "protective biofilms in planta on tomato roots (% coverage)", "setting": "[3]", "result": "sustained protective biofilms in planta on tomato roots"}, {"measurement": "protective biofilms in planta on tomato roots (% coverage)", "setting": "[3]; listed as Caffeic acid", "result": "can promote biofilm maintenance"}, {"measurement": "tomato plant survival after pseudomonas syringae pv. Tomato infection", "setting": "[4]", "result": "increased tomato plant survival"}]}, {"compound": "O=C(/C=C/c1ccc(O)c(O)c1)O[C@@H]1C[C@](O)(C(=O)O)C[C@@H](O)[C@H]1O", "note": "[chlorogenic acid]", "values": [{"measurement": "pks activation in screen of plant metabolites", "setting": "[1]", "result": "activatespks operon; also recorded: induced pks activation"}]}, {"compound": "NCCCCN", "note": "[putrescine]", "values": [{"measurement": "effect on beneficial biofilms (stability / maintenance), single agent", "setting": "B. subtilis biofilms", "result": "little or no biological effect"}, {"measurement": "tomato plant survival after pseudomonas syringae pv. Tomato infection", "setting": "[4]", "result": "little or no biological effect on tomato plant survival"}]}]}
